Patent US20230085307A1, “PYRIDAZINONE COMPOUND AND HERBICIDE” (NISSAN CHEMICAL CORPORATION, priority 2019, published 2023)

Experiments:
[1] = system: blackgrass; experiment: Test Example 4: herbicidal effect by soil treatment (Table 19, symbol J); assay type: in vivo, blackgrass (Alopecurus myosuroides); conditions: amount of applied herbicide 320 g/ha
Summary of the method: (§1)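 In this soil treatment, the formulated compound reached the seeds only through the soil: seeds were buried about 1.5 cm deep in sterilized diluvial soil, then the diluted emulsion was sprayed over the surface. After three weeks at 25° C. to 30° C. in a greenhouse, effects were graded on criteria from an earlier test.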

[2] = system: rice flat sedge; experiment: Test Example 3: herbicidal effect by foliage application, Wagner pot (Table 18, symbol E); assay type: in vivo, rice flat sedge (Cyperus iria); conditions: 320 g/ha
Summary of the method: (§2)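 Plants were sown in alluvial soil held under 0.1–0.5 cm standing water and grown 14 days in a greenhouse at 25–30 °C. An emulsifiable formulation, water-diluted to the set dose, was then sprayed onto the foliage, and effects were scored three weeks later using previously defined criteria.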

[3] = system: barnyard grass; experiment: Test Example 3: herbicidal effect by foliage application, Wagner pot (Table 18, symbol H); assay type: in vivo, barnyard grass (Echinochloa crus-galli); conditions: 320 g/ha
Summary of the method: as §2

[4] = system: velvetleaf; experiment: Test Example 5: herbicidal effect by foliage application, plastic box (Table 20, symbol M); assay type: in vivo, velvetleaf (Abutilon theophrasti)
Summary of the method: (§3)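 Plants were sown into sterilized diluvial soil under about 1.5 cm cover and kept in a greenhouse at 25° C. to 30° C. Fourteen days on, foliage received an even spray of the diluted emulsion. Herbicidal or crop effect was judged three weeks afterwards.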

[5] = system: blackgrass; experiment: Test Example 5: herbicidal effect by foliage application, plastic box (Table 20, symbol J); assay type: in vivo, blackgrass (Alopecurus myosuroides)
Summary of the method: as §3

[6] = system: Chinese sprangletop; experiment: Test Example 3: herbicidal effect by foliage application, Wagner pot (Table 18, symbol D); assay type: in vivo, chinese sprangletop (Leptochloa chinensis); conditions: 320 g/ha
Summary of the method: as §2

[7] = system: Italian ryegrass; experiment: Test Example 4: herbicidal effect by soil treatment (Table 19, symbol K); assay type: in vivo, Italian ryegrass (Lolium multiflorum); conditions: amount of applied herbicide 320 g/ha
Summary of the method: as §1

[8] = system: Italian ryegrass; experiment: Test Example 5: herbicidal effect by foliage application, plastic box (Table 20, symbol K); assay type: in vivo, Italian ryegrass (Lolium multiflorum)
Summary of the method: as §3

[9] = system: chickweed; experiment: Test Example 5: herbicidal effect by foliage application, plastic box (Table 20, symbol P); assay type: in vivo, common chickweed (Stellaria media); conditions: amount of applied herbicide 320 g/ha; foliage application after 14-day growth; evaluated three weeks after application
Summary of the method: as §3

[10] = system: green foxtail; experiment: Test Example 5: herbicidal effect by foliage application, plastic box (Table 20, symbol G); assay type: in vivo, green foxtail (Setaria viridis)
Summary of the method: as §3

[11] = system: southern crabgrass; experiment: Test Example 5: herbicidal effect by foliage application, plastic box (Table 20, symbol F); assay type: in vivo, southern crabgrass (Digitaria ciliaris)
Summary of the method: as §3

[12] = system: wild oat; experiment: Test Example 4: herbicidal effect by soil treatment (Table 19, symbol I); assay type: in vivo, wild oat (Avena fatua); conditions: amount of applied herbicide 320 g/ha
Summary of the method: as §1

[13] = system: lambsquarters; experiment: Test Example 5: herbicidal effect by foliage application, plastic box (Table 20, symbol O); assay type: in vivo, lambsquarters (Chenopodium album)
Summary of the method: as §3

[14] = system: redroot pigweed; experiment: Test Example 5: herbicidal effect by foliage application, plastic box (Table 20, symbol N); assay type: in vivo, redroot pigweed (Amaranthus retroflexus); conditions: amount of applied herbicide 320 g/ha; foliage application after 14-day growth; evaluated three weeks after application
Summary of the method: as §3

[15] = system: velvetleaf; experiment: Test Example 4: herbicidal effect by soil treatment (Table 19, symbol M); assay type: in vivo, velvetleaf (Abutilon theophrasti); conditions: amount of applied herbicide 320 g/ha
Summary of the method: as §1

[16] = system: persian speedwell; experiment: Test Example 5: herbicidal effect by foliage application, plastic box (Table 20, symbol R); assay type: in vivo, Persian speedwell (Veronica persica)
Summary of the method: as §3

[17] = system: barnyard grass; experiment: Test Example 5: herbicidal effect by foliage application, plastic box (Table 20, symbol H); assay type: in vivo, barnyard grass (Echinochloa crus-galli)
Summary of the method: as §3

[18] = system: wild oat; experiment: Test Example 5: herbicidal effect by foliage application, plastic box (Table 20, symbol I); assay type: in vivo, wild oat (Avena fatua)
Summary of the method: as §3

[19] = system: persian speedwell; experiment: Test Example 4: herbicidal effect by soil treatment (Table 19, symbol R); assay type: in vivo, Persian speedwell (Veronica persica); conditions: amount of applied herbicide 320 g/ha
Summary of the method: as §1

[20] = system: southern crabgrass; experiment: Test Example 4: herbicidal effect by soil treatment (Table 19, symbol F); assay type: in vivo, southern crabgrass (Digitaria ciliaris); conditions: amount of applied herbicide 320 g/ha
Summary of the method: as §1

[21] = system: green foxtail; experiment: Test Example 4: herbicidal effect by soil treatment (Table 19, symbol G); assay type: in vivo, green foxtail (Setaria viridis); conditions: amount of applied herbicide 320 g/ha
Summary of the method: as §1

[22] = system: windgrass; experiment: Test Example 4: herbicidal effect by soil treatment (Table 19, symbol L); assay type: in vivo, windgrass (Apera spica-venti); conditions: amount of applied herbicide 320 g/ha
Summary of the method: as §1

[23] = system: chickweed; experiment: Test Example 4: herbicidal effect by soil treatment (Table 19, symbol P); assay type: in vivo, common chickweed (Stellaria media); conditions: amount of applied herbicide 320 g/ha
Summary of the method: as §1

[24] = system: windgrass; experiment: Test Example 5: herbicidal effect by foliage application, plastic box (Table 20, symbol L); assay type: in vivo, windgrass (Apera spica-venti)
Summary of the method: as §3

[25] = system: redroot pigweed; experiment: Test Example 4: herbicidal effect by soil treatment (Table 19, symbol N); assay type: in vivo, redroot pigweed (Amaranthus retroflexus); conditions: amount of applied herbicide 320 g/ha
Summary of the method: as §1

[26] = system: barnyard grass; experiment: Test Example 4: herbicidal effect by soil treatment (Table 19, symbol H); assay type: in vivo, barnyard grass (Echinochloa crus-galli); conditions: amount of applied herbicide 320 g/ha
Summary of the method: as §1

[27] = system: lambsquarters; experiment: Test Example 4: herbicidal effect by soil treatment (Table 19, symbol O); assay type: in vivo, lambsquarters (Chenopodium album); conditions: amount of applied herbicide 320 g/ha
Summary of the method: as §1

[28] = system: Japanese bulrush; experiment: Test Example 1: herbicidal activity, application before weed generation under submerged conditions (Table 16, symbol B); assay type: in vivo, Japanese bulrush (Schoenoplectus juncoides); conditions: amount of applied herbicide 320 g/ha
Description: (§4) [Test Example 1] Herbicidal Activity Test by Application before Weed Generation under Submerged Conditions After alluvial soil was placed into 1/10000 are of Wagner pot, water was poured and mixed to form a submerged condition having a water depth of 4 cm. Seeds of late watergrass, Japanese bulrush, and oval-leafed pondweed were sowed in a mixed manner in the aforementioned pot, and then 2.5 leaf stage rice plant seedlings were transplanted thereto. On the day of sowing seeds, the emulsion agent of the compound of the present invention prepared according to Formulation Example 2 was diluted with water so as to achieve a predetermined herbicide amount, and the diluted emulsion agent was applied to the surface of the water. The pot was placed in a greenhouse at 25° C. to 30° C. for growth of the plants. Three weeks after the herbicide application, the effect of the herbicide on each plant was evaluated according to the following criteria. Evaluation Criteria 5: Herbicidal rate of 90% or more (almost completely withered) 4: Herbicidal rate of 70% or more and less than 90% 3: Herbicidal rate of 40% or more and less than 70% 2: Herbicidal rate of 20% or more and less than 40% 1: Herbicidal rate of 5% or more and less than 20% 0: Herbicidal rate of 5% or less (almost no effect)

[29] = system: late watergrass; experiment: Test Example 1: herbicidal activity, application before weed generation under submerged conditions (Table 16, symbol A); assay type: in vivo, late watergrass (Echinochloa oryzicola); conditions: amount of applied herbicide 320 g/ha
Description: as §4

[30] = amount of applied herbicide 320 g/ha, foliage application after 14-day growth, evaluated three weeks after application
[31] = foliage application, 320 g/ha, three weeks after application

Structure (SMILES): COc1cc(F)ccc1-c1sc2cc(Cl)c(Cl)cc2c1-c1c(O)c(C)nn(C)c1=O [5-051]
- J: blackgrass, herbicidal effect grade [1]: 0 (Herbicidal rate of 5% or less (almost no effect))
- herbicidal effect on rice flat sedge (E) [2]: 3 (Herbicidal rate of 40% or more and less than 70%)
- herbicidal effect on barnyard grass (H) [3]: 4 (Herbicidal rate of 70% or more and less than 90%)
- Herbicidal effect by foliage application, M: velvetleaf [4, 30]: 5 (Herbicidal rate of 90% or more (almost completely withered))
- Herbicidal effect by foliage application, J: blackgrass [5, 30]: 5 (Herbicidal rate of 90% or more (almost completely withered))
- herbicidal effect on Chinese sprangletop (D) [6]: 3 (Herbicidal rate of 40% or more and less than 70%)
- K: Italian ryegrass, herbicidal effect grade [7]: 0 (Herbicidal rate of 5% or less (almost no effect))
- Herbicidal effect by foliage application, K: Italian ryegrass [8, 30]: 0 (Herbicidal rate of 5% or less (almost no effect))
- Herbicidal effect by foliage application, P: chickweed [9]: 5 (Herbicidal rate of 90% or more (almost completely withered))
- Herbicidal effect by foliage application, G: green foxtail [10, 30]: 4 (Herbicidal rate of 70% or more and less than 90%)
- Herbicidal effect by foliage application, F: southern crabgrass [11, 30]: 2 (Herbicidal rate of 20% or more and less than 40%)
- I: wild oat, herbicidal effect grade [12]: 0 (Herbicidal rate of 5% or less (almost no effect))
- Herbicidal effect by foliage application, O: lambsquarters [13, 30]: 3 (Herbicidal rate of 40% or more and less than 70%)
- Herbicidal effect by foliage application, N: redroot pigweed [14]: 3 (Herbicidal rate of 40% or more and less than 70%)
- M: velvetleaf, herbicidal effect grade [15]: 0 (Herbicidal rate of 5% or less (almost no effect))
- Herbicidal effect by foliage application, R: persian speedwell [16, 30]: 3 (Herbicidal rate of 40% or more and less than 70%)
- Herbicidal effect by foliage application, H: barnyard grass [17, 30]: 3 (Herbicidal rate of 40% or more and less than 70%)
- Herbicidal effect by foliage application, I: wild oat [18, 30]: 0 (Herbicidal rate of 5% or less (almost no effect))
- R: persian speedwell, herbicidal effect grade [19]: 0 (Herbicidal rate of 5% or less (almost no effect))
- F: southern crabgrass, herbicidal effect grade [20]: 0 (Herbicidal rate of 5% or less (almost no effect))
- G: green foxtail, herbicidal effect grade [21]: 2 (Herbicidal rate of 20% or more and less than 40%)
- L: windgrass, herbicidal effect grade [22]: 0 (Herbicidal rate of 5% or less (almost no effect))
- P: chickweed, herbicidal effect grade [23]: 1 (Herbicidal rate of 5% or more and less than 20%)
- Herbicidal effect by foliage application, L: windgrass [24, 30]: 4 (Herbicidal rate of 70% or more and less than 90%)
- N: redroot pigweed, herbicidal effect grade [25]: 1 (Herbicidal rate of 5% or more and less than 20%)
- H: barnyard grass, herbicidal effect grade [26]: 0 (Herbicidal rate of 5% or less (almost no effect))
- O: lambsquarters, herbicidal effect grade [27]: 4 (Herbicidal rate of 70% or more and less than 90%)

Structure (SMILES): COc1cc2sc(-c3ccccc3OC)c(-c3c(O)c(C)nn(C)c3=O)c2cc1Cl [5-068]
- herbicidal effect on rice flat sedge (E) [2]: 1 (Herbicidal rate of 5% or more and less than 20%)
- Herbicidal effect, B: Japanese bulrush [28]: 5 (Herbicidal rate of 90% or more (almost completely withered))
- herbicidal effect on barnyard grass (H) [3]: 4 (Herbicidal rate of 70% or more and less than 90%)
- herbicidal effect on velvetleaf (M) [4, 31]: 1 (Herbicidal rate of 5% or more and less than 20%)
- herbicidal effect on blackgrass (J) [5, 31]: 0 (Herbicidal rate of 5% or less (almost no effect))
- herbicidal effect on Chinese sprangletop (D) [6]: 0 (Herbicidal rate of 5% or less (almost no effect))
- herbicidal effect on Italian ryegrass (K) [8, 31]: 0 (Herbicidal rate of 5% or less (almost no effect))
- herbicidal effect on green foxtail (G) [10, 31]: 3 (Herbicidal rate of 40% or more and less than 70%)
- herbicidal effect on southern crabgrass (F) [11, 31]: 1 (Herbicidal rate of 5% or more and less than 20%)
- herbicidal effect on lambsquarters (O) [13, 31]: 3 (Herbicidal rate of 40% or more and less than 70%)
- herbicidal effect on persian speedwell (R) [16, 31]: 2 (Herbicidal rate of 20% or more and less than 40%)
- herbicidal effect on barnyard grass (H) [17, 31]: 3 (Herbicidal rate of 40% or more and less than 70%)
- herbicidal effect on wild oat (I) [18, 31]: 0 (Herbicidal rate of 5% or less (almost no effect))
- herbicidal effect on windgrass (L) [24, 31]: 0 (Herbicidal rate of 5% or less (almost no effect))
- Herbicidal effect, A: late watergrass [29]: 0 (Herbicidal rate of 5% or less (almost no effect))
